The values that follow come from the METLIN SMRT retention time set (Domingo-Almenara et al. 2019).

The series is described as follows: gradient 5% acetonitrile 3 min, to 50% in 2 min, to 85% in 15 min, held 3 min, 100 µL/min. The conditions noted are these: column: Zorbax Extend-C18 2.1 x 50 mm; eluents: water / acetonitrile, 0.1% formic acid. The method, boiled down:
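The mobile phases were water and acetonitrile, each with 0.1% formic acid, pumped at 100 μL/min through a Zorbax Extend-C18 column (2.1 × 50 mm, 1.8 μm). Pure standards were injected as mixtures of ~100 molecules and detected by a quadrupole time-of-flight mass spectrometer in positive and negative ionization mode. Retention time came from computationally picked adduct peaks, each inspected by hand.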
Turning to `COC(=O)c1c(-c2ccc(Cl)cc2)noc1N1CCN(C(=O)c2ccco2)CC1`, the RP-LC retention time was determined as 978 s. The result for `CCc1ccccc1NS(=O)(=O)c1cc(-c2c(CC)noc2NC(C)=O)ccc1OC` reads 838 s; that for `CC(C)c1cc(C(=O)NC2CC2)nc2cc(-c3ccccn3)nn12`, 819 s.

Consider `CC1(C(=O)NC2CCCCC2)Cn2c(ccc2-c2ccco2)C(=O)N1Cc1ccccn1` (stereo not drawn), for which the RP-LC retention time was determined as 766 s. In the case of `Cc1nn(-c2cc(N3CCCC3)ncn2)c(C)c1CCC(=O)Nc1ccc(F)cc1Cl` it was 791 s.

Take `Cc1cc(C)c2c(CN3CCN(c4ccccn4)CC3)cc(=O)oc2c1`: the RP-LC retention time was found to be 672 s. In the case of `CCc1cc(=O)n(CC(=O)Nc2cc(C)on2)c(-c2ccccc2)n1` it was 938 s; in that of `Cc1ccc(-n2cc(C(=O)OCc3ccco3)c3ccccc3c2=O)cc1`, 1170 s; in that of `Cc1csc(-c2ccc(N3CCN(C(=O)c4ccco4)CC3)nc2)n1`, 711 s. The result for `CCC(C)NC(=O)C1CCN(C2=NS(=O)(=O)C(c3ccc(OC)cc3)=C2C)CC1` (stereo not drawn) reads 795 s; that for `CCc1nnc2ccc(NC(=O)Nc3cccc(C)c3)cn12`, 719 s. Compound `Cc1ccc(Nc2c(-c3cccc(O)c3)nc3cnccn23)cc1Br` showed an RP-LC retention time of 834 s.

With `Cc1cccc(NC(=O)Cn2c(-c3cnccn3)nc(C)c(C)c2=O)c1`, the RP-LC retention time came out at 707 s. The result for `CCNC(=O)CCc1nc2ccccc2n(CC(=O)NCc2ccc(OC)cc2)c1=O` reads 700 s. The result for `CCOc1ccc(-c2noc(N3CCC(C(=O)N4CCCC4)CC3)n2)cc1OC` reads 782 s; that for `COC(=O)c1cc(C)nc2c1c(=O)n(Cc1cccc(C#N)c1)c(=O)n2C`, 952 s; that for `O=C(NCCCN1CCCC1)C1CCN(Cc2cc3ccccc3n2Cc2ccccc2Cl)CC1`, 609 s. In the case of `CC(=O)N1CCc2ccccc2C1C(=O)NCc1ccc(Br)cc1` (stereo not drawn) it was 835 s; in that of `Cc1cc(C)cc(S(=O)(=O)Nc2ccc3c(c2)CCC(=O)N3CC(C)C)c1`, 928 s. `Cc1nnc(N2CCCC(C(=O)NCCC3=CCCCC3)C2)c2nn(-c3ccc(Cl)cc3)c(C)c12` (stereo not drawn) yielded an RP-LC retention time of 861 s. For the compound `CC(=O)N1CCN(c2nc(CC(C)C)c3c(c2C#N)CC(C)(C)OC3)CC1`, the RP-LC retention time was 1060 s. In the case of `Cc1ccc(NC(=O)N2CC(n3ccnc3C(C)C)C2)cc1C` it was 642 s. In the case of `O=C(CN1C(=O)NC2(CCCCC2)C1=O)Nc1ccc(Br)cc1F` it was 826 s; in that of `COc1cc(NC(=O)C2CCN(S(=O)(=O)c3cn(C(C)C)cn3)CC2)cc(OC)c1OC`, 707 s; in that of `CCOC(=O)C1CCN(C(=O)c2nc(N3CCCCC3)c3c(C)cc(C)nc3n2)CC1`, 595 s.

In turn, `COc1cccc(S(=O)(=O)N2CCC3(CC2)N(C2CCCC2)C(=O)CS3=O)c1` (stereo not drawn) registered an RP-LC retention time of 780 s.

On to `COCCN(CC(=O)N1CCc2sccc2C1COc1ccc(Cl)cc1)C(=O)COC` (stereo not drawn), for which the RP-LC retention time is 839 s. The result for `CCn1cc(CCNC(=O)Nc2ccc(C)cc2C)c2cccnc21` reads 705 s; that for `CCc1nc2ccc(-c3noc(CNC(=O)c4ccccc4)n3)cc2n1CC`, 637 s.

With `O=C(Nc1cccc(-c2ccn[nH]2)c1)c1ccco1`, the RP-LC retention time is 631 s. The result for `O=c1c(NCCCc2ccccc2)nc2ccncc2n1Cc1ccccc1` reads 778 s; that for `O=C(CSc1ccc(-c2ccco2)nn1)N1CCCCC1`, 690 s; that for `Cc1ccc(S(=O)(=O)N2CCC(C)(C(=O)NCc3ccccc3C)CC2)cc1C`, 1030 s.
